In patent publication US8642532B2, “Excipients for protein stabilization” (priority 2007, dated 2014):

Legend:
BSA [1] = biological target: T1, BSA (Bos taurus, UniProt P02769); test: Reduction of aggregation of BSA induced by t-butanol, SEC HPLC; format: physicochemical, Bovine; settings: BSA precipitated with t-butanol, re-dissolved in PBS
T1 construct: BSA stock solution (35%, in water, 0.85% sodium chloride, from Sigma); purchased Sigma / Sigma Aldrich
Experimental: To three separate test tubes containing 0.050 ml of BSA (35%, 0.85% sodium chloride) and 0.050 ml of phosphate buffer (50 mM, pH 7.4), were respectively added 0.010 ml of water, 0.010 mll of 2-formylbenzenesulfonic acid sodium salt (75 mg/ml, pH 8), and 0.010 ml of pyridoxal phosphate (100 mg/ml, pH 7.4). To each of the three tubes were then added 0.50 ml of PEG solution (75%, molecular weight 3400) followed by centrifugation to give some precipitate. The three supernatants were collected to have BSA at saturated concentrations, and to them were separately added 0.50 ml of t-butanol to have more BSA precipitates after centrifugation. The crops of precipitates from t-butanol were washed with t-butanol twice (0.75 ml each) and re-dissolved in PBS buffer (50 mM sodium phosphate, pH 7.4, 0.85% sodium chloride) for SEC HPLC analysis. Plain BSA produced about 75% of aggregates, the sample with 2-formylbenzenesulfonic acid produced about 60% of aggregates, the sample with pyridoxal phosphate produced less than 50% of aggregates.

zinc-free bovine insulin = biological target: T2, zinc-free bovine insulin (Bos taurus, UniProt P01317); test: Inhibition of insulin fibrillation by pyridoxal phosphate, rotator at 39° C.; format: physicochemical
T2 construct: A solution of zinc-free bovine insulin was prepared in phosphate buffer
Experimental: A solution of zinc-free bovine insulin was prepared in phosphate buffer (50 mM, pH 7.4, no sodium chloride) at concentration of 1.2 mg/ml. Two aliquots of 2.0 ml each were transferred into two separate glass tubes (sanitized in boiling water), and 0.10 ml of water was added to one tube, and 0.10 ml of pyridoxal phosphate (100 mg/ml, in water, pH 7.4) was added to the other. Both tubes were capped and put on a rotator (12 rotations per minute) in an oven at temperature of 39° C.
A solution of zinc-free bovine insulin was prepared in phosphate buffer (50 mM, pH 7.0, no sodium chloride) at concentration of 1.2 mg/ml. Two aliquots of 2.0 ml each were transferred into two separate glass tubes (sanitized in boiling water), and 0.10 ml of water was added to each tube. To 4.0 ml of the insulin solution was added 0.20 ml of pyridoxal phosphate (100 mg/ml, in water, pH 7.4) and the pH was adjusted to 7.0, and divided into two separate glass tubes (sanitized in boiling water). All the four tubes were capped and put on a rotator (12 rotations per minute) in an oven at temperature of 39° C.
A solution of zinc-free bovine insulin (50 mg) was dissolved in 0.50 ml of 0.1 N hydrochloric acid, and neutralized using 0.1 N sodium hydroxide until it turned cloudy and clear again. Then 0.667 ml of pyridoxal phosphate solution (167 mg/ml, pH 7.0 in water) was added to the insulin solution, and the pH was re-adjusted to 7.4 using dilute sodium hydroxide. The total volume was adjusted to 2.5 ml with HPLC grade water. Serial dilution using water provided four samples (1.0 ml each) of insulin concentrations at 2.0, 5.0, 10, 15 mg/ml. All the four samples in glass vials, together with 0.5 ml of the remaining insulin-pyridoxal phosphate solution (20 mg/ml) were capped and put on a rotator (12 rotations per minute) in an oven at temperature of 39° C.

BSA [2] = biological target: T1, BSA; test: Reduction of aggregation of BSA induced by methanol, SEC HPLC; format: physicochemical, Bovine; settings: precipitated with PEG 3400 and methanol, re-dissolved in PBS
Experimental: BSA stock solution (0.050 ml, 35%, 0.85% sodium chloride, Sigma) was diluted with 0.050 ml of sodium phosphate buffer (50 mM, pH 7.4, no sodium chloride) and 0.050 ml of water (HPLC grade). A separate sample was prepared in the same way, but replacing the 0.050 ml of water using 0.050 ml of an excipient solution containing pyridoxal phosphate (represented as X2 in FIG. 1, 100 mg/ml in water, pH 7.4). To each of the two samples in test tubes were added 0.350 ml of an aqueous solution of polyethylene glycol (molecular weight 3400, 75%) to turn the mixtures cloudy, followed by addition of 0.50 ml of methanol (HPLC grade). Then the samples were centrifuged to collect the precipitates. The precipitates were re-dissolved in PBS buffer and analyzed on Size Exclusion Chromatography HPLC. Without excipient, about two thirds of BSA was found in the form of aggregates, while only a quarter of BSA appeared as aggregate in the samples using excipient pyridoxal phosphate.

T2 sequence (P01317 25-54 limits assumed): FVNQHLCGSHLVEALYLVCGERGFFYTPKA
T2 sequence (P01317 85-105 limits assumed): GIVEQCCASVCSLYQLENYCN
T1 sequence (P02769 25-607): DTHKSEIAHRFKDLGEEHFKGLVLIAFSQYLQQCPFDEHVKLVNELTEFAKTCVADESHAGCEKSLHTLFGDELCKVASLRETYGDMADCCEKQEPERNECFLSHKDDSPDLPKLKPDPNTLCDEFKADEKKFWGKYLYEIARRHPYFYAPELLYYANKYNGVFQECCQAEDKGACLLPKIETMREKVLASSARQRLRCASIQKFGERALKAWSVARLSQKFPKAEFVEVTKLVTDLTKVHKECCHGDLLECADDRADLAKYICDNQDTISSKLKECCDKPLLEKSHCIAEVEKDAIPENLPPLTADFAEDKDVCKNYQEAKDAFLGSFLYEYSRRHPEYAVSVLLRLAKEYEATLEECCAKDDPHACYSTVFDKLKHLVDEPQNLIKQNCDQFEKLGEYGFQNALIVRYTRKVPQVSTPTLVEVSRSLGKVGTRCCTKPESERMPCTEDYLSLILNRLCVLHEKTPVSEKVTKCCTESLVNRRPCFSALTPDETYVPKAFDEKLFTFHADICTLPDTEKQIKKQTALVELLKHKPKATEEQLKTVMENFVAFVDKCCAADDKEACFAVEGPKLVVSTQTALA

For `Cc1ncc(COP(=O)(O)O)c(C=O)c1O` [pyridoxal phosphate], which Aggregates produced (BSA [1]) is on record?
Its Aggregates produced is “less than 50%”.

What about the “Appearance of insulin solution (fibrillation)” value (shortened to “Appearance of insulin solution”) (zinc-free bovine insulin; pH 7.0, insulin 1.2 mg/ml, 0.20 ml pyridoxal phosphate 100 mg/ml in 4.0 ml) of the same compound?
Its value is “still remained clear beyond four weeks”.

What about the “Appearance of insulin solution” value (zinc-free bovine insulin; pH 7.4, insulin 1.2 mg/ml, 0.10 ml pyridoxal phosphate 100 mg/ml in 2.0 ml) of the same compound?
Its value is “still remained clear after five weeks”.

What about the “Appearance of insulin solution” value (zinc-free bovine insulin; pH 7.4, insulin 2.0, 5.0, 10, 15 and 20 mg/ml with pyridoxal phosphate serially diluted) of the same compound?
Its value is “still remained clear after three weeks”.

And the “Fraction of BSA appearing as aggregate” value (BSA [2])?
The value was “a quarter”.
